This is an account of results in ChEMBL document CHEMBL4819135, “Design, synthesis and anti-HIV evaluation of novel 5-substituted diarylpyrimidine derivatives as potent HIV-1 NNRTIs” (Bioorg Med Chem, 2021).

The test system of data set [1] is Human immunodeficiency virus 1. Description: Antiviral activity against HIV-1 IIIB infected in human MT4 cells assessed as protection against virus-induced cytotoxicity after 5 days by MTT assay. The data set is classed as functional, organism-based. The note with it: Human immunodeficiency virus 1, IIIB, MT4, 120 h. For orientation: Tetrazolium dyes change colour on reduction, which living cells bring about.

The test system of data set [2] is Human immunodeficiency virus 1. Put plainly: Antiviral activity against HIV-1 IIIB harboring RT L100I mutant infected in human MT4 cells assessed as protection against virus-induced cytotoxicity incubated for 5 days by MTT assay. It is filed as functional, organism-based. Particulars: Human immunodeficiency virus 1, IIIB, MT4, 120 h.
The subject of data set [3] is Human immunodeficiency virus 1. Put plainly: Antiviral activity against HIV-1 IIIB harboring RT K103N mutant infected in human MT4 cells assessed as protection against virus-induced cytotoxicity incubated for 5 days by MTT assay. It is filed as functional, organism-based. Particulars: Human immunodeficiency virus 1, IIIB, MT4, 120 h.
In data set [4] the test system is Human immunodeficiency virus 1. Description: Antiviral activity against HIV-1 IIIB harboring RT Y181C mutant infected in human MT4 cells assessed as protection against virus-induced cytotoxicity incubated for 5 days by MTT assay. It is filed as functional, organism-based. The note with it: Human immunodeficiency virus 1, IIIB, MT4, 120 h.
For data set [5], the system named is Human immunodeficiency virus 1. Put plainly: Antiviral activity against HIV-1 IIIB harboring RT Y188L mutant infected in human MT4 cells assessed as protection against virus-induced cytotoxicity incubated for 5 days by MTT assay. The data set is classed as functional, organism-based. The note with it: Human immunodeficiency virus 1, IIIB, MT4, 120 h.
In data set [6] the test system is Human immunodeficiency virus 1. Description: Antiviral activity against HIV-1 IIIB harboring RT E138K mutant infected in human MT4 cells assessed as protection against virus-induced cytotoxicity incubated for 5 days by MTT assay. It is filed as functional, organism-based. The note with it: Human immunodeficiency virus 1, IIIB, MT4, 120 h.
In data set [7] the test system is Human immunodeficiency virus 1. Put plainly: Antiviral activity against HIV-1 IIIB harboring RT F227L/V106A mutant infected in human MT4 cells assessed as protection against virus-induced cytotoxicity incubated for 5 days by MTT assay. It is filed as functional, organism-based. The note with it: Human immunodeficiency virus 1, IIIB, MT4, 120 h.
Data set [8] concerns Human immunodeficiency virus 1. Put plainly: Antiviral activity against HIV-1 RES056 infected in human MT4 cells assessed as protection against virus-induced cytotoxicity incubated for 5 days by MTT assay. It is filed as functional, organism-based. Particulars: Human immunodeficiency virus 1, RES056, MT4, 120 h.
Data set [9] in a line: Antiviral activity against HIV-2 ROD infected in human MT4 cells assessed as protection against virus-induced cytotoxicity incubated for 5 days by MTT assay. It is filed as functional, cell-based. Particulars: HIV-2, ISOLATE ROD, MT4, 120 h.
Data set [10] can be described thus: Cytotoxicity against human MT4 cells assessed as reduction in cell viability after 5 days by MTT assay. The note with it: time 5 day. It is filed as cell-based.
The subject of data set [11] is Human immunodeficiency virus 1. Put plainly: Potency index, ratio of Etravirine EC50 to test compound EC50 for antiviral activity against HIV-1 IIIB infected in human MT4 cells by MTT assay. The data set is classed as functional.
The test system of data set [12] is Human immunodeficiency virus 1. Description: Potency index, ratio of Etravirine EC50 to test compound EC50 for antiviral activity against HIV-1 IIIB harboring RT E138K mutant infected in human MT4 cells by MTT assay. The data set is classed as functional.

pEC50: −log10 of the molar value. A value given as a limit tells only on which side of the number the result lay.

Regarding `Cc1cc(C#N)cc(C)c1Oc1nc(Nc2ccc(C#N)cc2)ncc1-c1ccc(Cl)cc1`, the pEC50 (commonly the EC50 on a negative log10 scale, so that one unit is a factor of ten) in data set [1] was 7.84; in data set [2], 6.67; in [3] it was 7.71; in data set [4], 6.60; in data set [5], 6.25; in data set [6] it was 7.14. In addition, the pEC50 in data set [7] was 6.04; in [8], 5.29; in data set [9], less than 4.14. Moreover, in data set [10], the CC50 (as a rule, the concentration that lowers cell viability or growth by half) at 120 h was 72600 nM.
Turning to `COc1ccc(-c2cnc(Nc3ccc(C#N)cc3)nc2Oc2c(C)cc(C#N)cc2C)cc1`, the pEC50 is 8.10 in data set [1]; 6.79 in [2]; 7.84 in [3]; 6.73 in [4]; 6.84 in data set [5]; 7.42 in data set [6]. In addition, the pEC50 in data set [7] is 6.56; in data set [8] it was 5.42; in data set [9], less than 3.55. Moreover, the CC50 at 120 h in data set [10] was greater than 279000 nM.
With `Cc1cc(C)cc(-c2cnc(Nc3ccc(C#N)cc3)nc2Oc2c(C)cc(C#N)cc2C)c1`, the pEC50 is 6.99 in [1]; 6.38 in [2]; 6.87 in [3]; 6.08 in data set [4]; 5.65 in data set [5]; 6.50 in data set [6]. Also, the pEC50 in data set [7] is 5.95; in data set [8], less than 4.41; in [9], less than 4.41. The CC50 at 120 h in data set [10] is 39000 nM.
Consider `Cc1cc(C#N)cc(C)c1Oc1nc(Nc2ccc(C#N)cc2)ncc1-c1ccoc1`, for which the pEC50 is 8.48 in data set [1]; 7.72 in [2]; 8.36 in data set [3]; 7.75 in data set [4]; 7.65 in data set [5]; 8.03 in [6]. Also, the pEC50 is 7.49 in data set [7], 6.40 in data set [8] and less than 5.30 in data set [9]. The CC50 at 120 h in [10] was 4980 nM.
Turning to `Cc1cc(C#N)cc(C)c1Oc1nc(Nc2ccc(C#N)cc2)ncc1-c1ccc2ccccc2c1`, the pEC50 in data set [1] was 7.77; in data set [2] it was 6.71; in data set [3], 7.45; in data set [4], 6.45; in data set [5] it was 6.07; in data set [6] it was 7.11. Also, the pEC50 in data set [7] was 5.92; in data set [8], less than 5.07; in [9] it was less than 5.07. The CC50 at 120 h in data set [10] was 8460 nM.
On to `Cc1cc(C#N)cc(C)c1Oc1nc(Nc2ccc(C#N)cc2)ncc1-c1cncnc1`, for which the pEC50 was 8.34 in data set [1]; 7.42 in [2]; 8.28 in [3]; 7.49 in data set [4]; 7.13 in [5]; 7.93 in data set [6]. Moreover, the pEC50 in data set [7] is 6.49; in data set [8], 6.50; in [9], less than 3.53. Besides, the CC50 at 120 h in data set [10] is greater than 298000 nM.
With `Cc1ccc(-c2cnc(Nc3ccc(C#N)cc3)nc2Oc2c(C)cc(C#N)cc2C)cc1`, the pEC50 was 7.93 in data set [1]; 6.86 in [2]; 7.69 in data set [3]; 6.46 in data set [4]; 6.57 in data set [5]; 7.24 in [6]. For the same compound, the pEC50 in [7] is 6.15; in data set [8], less than 4.97; in data set [9] it was less than 4.58. In addition, in [10], the CC50 at 120 h is 26100 nM.
Turning to `Cc1cc(C#N)cc(C)c1Oc1nc(Nc2ccc(C#N)cc2)ncc1-c1ccc(N)cc1`, the pEC50 in data set [1] is 8.46; in [2], 7.69; in [3], 8.42; in data set [4], 7.38; in data set [5] it was 7.47; in data set [6], 7.98. In addition, the pEC50 in data set [7] is 7.36; in data set [8] it was less than 6.51; in data set [9], less than 6.51. In addition, in data set [10], the CC50 at 120 h is 310 nM.
Turning to `Cc1cc(C#N)cc(C)c1Oc1nc(Nc2ccc(C#N)cc2)ncc1-c1ccco1`, the pEC50 in data set [1] was 8.44; in data set [2], 7.61; in data set [3] it was 8.33; in data set [4], 7.52; in [5] it was 7.43; in data set [6], 8.03. For the same compound, the pEC50 in [7] is 7.12; in [8], 5.99; in [9], less than 3.51. Further, the CC50 at 120 h in data set [10] was greater than 307000 nM.
For `Cc1cc(C#N)cc(C)c1Oc1nc(Nc2ccc(C#N)cc2)ncc1-c1ccsc1`, the pEC50 is 8.39 in data set [1]; 7.27 in [2]; 8.37 in [3]; 7.24 in data set [4]; 7.38 in data set [5]; 7.97 in data set [6]. For the same compound, the pEC50 in [7] was 7.19; in data set [8] it was 5.84; in data set [9], less than 5.41. In addition, the CC50 at 120 h in [10] was 3920 nM.
As for `Cc1cc(C#N)cc(C)c1Oc1nc(Nc2ccc(C#N)cc2)ncc1-c1ccc(C(F)(F)F)cc1`, the pEC50 in data set [1] is 7.94; in data set [2], 6.61; in [3], 7.60; in data set [4] it was 6.63; in data set [5], 6.22; in data set [6], 7.22. The pEC50 in data set [7] is 6.14; in data set [8], 5.26; in data set [9], less than 4.46. The CC50 at 120 h in data set [10] stood at 35000 nM.
In the case of `Cc1cc(C#N)cc(C)c1Oc1nc(Nc2ccc(C#N)cc2)ncc1-c1cccs1`, the pEC50 in data set [1] is 8.31; in [2], 7.68; in [3], 8.32; in data set [4], 7.44; in [5], 7.24; in data set [6], 7.89. Also, the pEC50 is 6.57 in data set [7], 5.94 in data set [8] and less than 5.19 in [9]. In addition, the CC50 at 120 h in data set [10] came to 6430 nM.
Turning to `Cc1cc(C#N)cc(C)c1Oc1nc(Nc2ccc(C#N)cc2)ncc1-c1cccnc1`, the pEC50 in data set [1] was 8.60; in data set [2], 7.62; in data set [3], 8.57; in [4] it was 7.63; in data set [5], 7.70; in [6] it was 8.15. In addition, the pEC50 in data set [7] is 6.95; in [8], 6.52; in data set [9] it was less than 4.87. The CC50 at 120 h in [10] came to 13500 nM. Further, the “Ratio EC50” value in [11] is on record as 1.2; in [12] it was 1.4.
With `Cc1cc(C#N)cc(C)c1Oc1nc(Nc2ccc(C#N)cc2)ncc1-c1cccc2ccccc12`, the pEC50 is 6.03 in [1]; 5.57 in [2]; 5.74 in [3]; 4.66 in data set [4]; 4.97 in [5]; 5.26 in [6]. Further, the pEC50 in data set [7] is 4.42; in [8] it was 3.66; in [9], less than 3.57. Moreover, the CC50 at 120 h in data set [10] is greater than 267000 nM.
For `Cc1cc(C#N)cc(C)c1Oc1nc(Nc2ccc(C#N)cc2)ncc1-c1ccc(F)cc1`, the pEC50 in [1] is 8.21; in [2], 6.80; in [3], 8.00; in [4], 6.95; in [5] it was 6.99; in [6], 7.73. Moreover, the pEC50 is 6.28 in [7], 5.30 in data set [8] and less than 4.37 in data set [9]. The 50% cytotoxic concentration (CC50) at 120 h in data set [10] worked out at 42700 nM.
With `Cc1cc(C#N)cc(C)c1Oc1nc(Nc2ccc(C#N)cc2)ncc1-c1ccccc1`, the pEC50 was 7.61 in [1]; 6.35 in data set [2]; 7.20 in [3]; 6.24 in data set [4]; 6.65 in data set [5]; 6.91 in data set [6]. The pEC50 in data set [7] is 6.05; in data set [8], 5.04; in data set [9], less than 4.50. Moreover, the CC50 at 120 h in [10] is 31800 nM.
For the compound `Cc1cc(C#N)cc(C)c1Oc1nc(Nc2ccc(C#N)cc2)ncc1-c1ccc(-c2ccccc2)cc1`, the pEC50 is 7.69 in [1]; 6.71 in data set [2]; 7.53 in data set [3]; 6.44 in [4]; 5.88 in data set [5]; 6.95 in data set [6]. Also, the pEC50 in data set [7] is 5.91; in [8], 5.07; in data set [9] it was less than 3.60. The CC50 at 120 h in [10] is greater than 253000 nM.
For `O=C1Nc2ccc(Cl)cc2[C@@](C#CC2CC2)(C(F)(F)F)O1` [EFAVIRENZ], the pEC50 in [2] was 7.51; in data set [8], 6.56. The CC50 at 120 h in [10] is greater than 6340 nM.
On to `Cc1cc(C#N)cc(C)c1Oc1nc(Nc2ccc(C#N)cc2)nc(N)c1Br` [ETRAVIRINE], for which, in [10], the CC50 at 120 h was greater than 4590 nM.
Consider `Cc1ccnc2c1NC(=O)c1cccnc1N2C1CC1` [NEVIRAPINE], for which the negative-log EC50 (pEC50) in data set [1] was 6.88; in data set [2], 6.23; in data set [3], 5.63; in data set [4] it was 5.44; in data set [5] it was 5.27; in data set [6] it was 6.94. Moreover, the pEC50 in data set [7] is 5.37; in [8], 4.97. Moreover, the CC50 at 120 h in [10] is greater than 15000 nM.
Regarding `Cc1cn([C@H]2C[C@H](N=[N+]=[N-])[C@@H](CO)O2)c(=O)[nH]c1=O` [ZIDOVUDINE], the pEC50 in data set [8] was 7.70. In addition, the CC50 at 120 h in data set [10] was greater than 7480 nM.
